The values below come from patent US20110071096A1, “Macrolides Having Antibiotic Activity” (IDEXX Laboratories, Inc., priority 2009, published 2011).

Assay [1] deals with Escheria Coli. The assay can be described thus: Minimum inhibitory concentration, gram negative bacteria. Type of assay: cell-based.
In assay [2] the test system is Enterococcus faecalis. Conditions: gram positive; from J. Clin. Micro., 26: 11, 2415-2420 (1988); cited from earlier work.
The test system of assay [3] is Bacteroides fragilis. The conditions noted are these: gram negative; from J. F. Presscott, Antimicrobial Therapy in Veterinary Medicine, 3rd ed.; cited from earlier work.
For assay [4], the system named is Streptococcus pyogenes. The conditions noted are these: gram positive; from J. Med. Chem., 44, 4137-4156 (2001); cited from earlier work.
Assay [5] concerns Streptococcus pneumonia. Conditions: gram positive; from J. Med. Chem., 44, 4137-4156 (2001); cited from earlier work.
In assay [6] the test system is Pasteurella multocida. The conditions noted are these: gram negative; from J. F. Presscott, Antimicrobial Therapy in Veterinary Medicine, 3rd ed.; cited from earlier work.
Assay [7] has as its system Bordetella bronchispetica. The assay can be described thus: Minimum inhibitory concentration, gram negative bacteria. The assay is classed as cell-based.
In assay [8] the test system is Staphylococcus aureus. The assay can be described thus: Minimum inhibitory concentration, gram positive bacteria. The assay is classed as cell-based.
Assay [9] relates to Bacillus subtilis. The assay is described as above. Type of assay: cell-based.
Assay [10] relates to Clostridium perfringens. The conditions noted are these: gram positive; from J. F. Presscott, Antimicrobial Therapy in Veterinary Medicine, 3rd ed.; cited from earlier work.
The subject of assay [11] is Enterococcus faecalis. The assay can be described thus: Minimum inhibitory concentration, gram positive bacteria. The assay is classed as cell-based.
Assay [12] concerns Clostridium perfringens. The assay can be described thus: microbe, parasite or virus in culture. Conditions: read-out: Minimum Inhibitory Concentration Clostridium perfringens. The assay is classed as cell-based.
The test system of assay [13] is Bacteroides fragilis. The assay can be described thus: Minimum inhibitory concentration, gram negative bacteria. Type of assay: cell-based.
Assay [14] relates to Klebsiella Pneumonia. The assay is described as above. The assay is classed as cell-based. The conditions noted are these: Klebsiella pneumoniae.
The test system of assay [15] is Streptococcus pyogenes. Description: Minimum inhibitory concentration, gram positive bacteria. Type of assay: cell-based.
The test system of assay [16] is Streptococcus pneumonia. The assay is described as above. Type of assay: cell-based. Conditions: Streptococcus pneumoniae.
The test system of assay [17] is Pasteurella multocida. The assay can be described thus: Minimum inhibitory concentration, gram negative bacteria. The assay is classed as cell-based.

Molecules are shown by their SMILES. Converted amounts (≈) assume the structure as drawn. Marks after values point to notes of the source that are not given here. Where only a bound is given, the exact number is not on record here.

As for `CC[C@H]1OC(=O)[C@H](C)[C@@H](O[C@H]2C[C@@](C)(OC)[C@@H](O)[C@H](C)O2)[C@H](C)[C@@H](O[C@@H]2O[C@H](C)C[C@H](N(C)C)[C@H]2O)[C@](C)(O)C[C@@H](C)C(=O)[C@H](C)[C@@H](O)[C@]1(C)O` [Erythromycin], the MIC in [1] came out at 32 µg/mL (≈ 43.6 µM); in assay [7], 4 µg/mL (≈ 5.45 µM); in assay [8], 0.25 µg/mL (≈ 0.341 µM); in assay [9], 0.25 µg/mL (≈ 0.341 µM). Further, the “Minimum Inhibitory Concentration Enterococcus faecalis” value in [2] is 2.7^(3) μg/mL. Also, the “Minimum Inhibitory Concentration Bacteroides fragilis” value in assay [3] is listed as >8* μg/mL. In addition, the “Minimum Inhibitory Concentration Streptococcus pyogenes” value in assay [4] is given as 0.06^(1) μg/mL. The “Minimum Inhibitory Concentration Streptococcus pneumonia” value in [5] is reported as 0.06^(1) μg/mL. Moreover, the “Minimum Inhibitory Concentration Pasteurella multocida” value in assay [6] is 4* μg/mL. Moreover, in assay [10], the “Minimum Inhibitory Concentration Clostridium perfringens” value is 4* μg/mL.

Consider `CC[C@H]1OC(=O)[C@H](C)[C@@H](OC2CC(C)(OC)C(OCCCN(C)C)C(C)O2)[C@H](C)[C@@H](OC2OC(C)CC(N(C)C)C2O)[C@](C)(OC)C[C@@H](C)C(=O)[C@H](C)[C@@H](O)[C@]1(C)O` (stereo partly drawn) [Formula 2, 4″-DMAP-Clarithromycin ether], for which the MIC came out at 32 µg/mL in assay [1]; 8 µg/mL in assay [11]; 2 µg/mL in assay [12]; 2 µg/mL in assay [13]; 32 µg/mL in [14]; 0.25 µg/mL in [15]. Moreover, the MIC in [7] is 4 µg/mL; in assay [8], 0.25 µg/mL; in [9] it was 0.25 µg/mL; in assay [16], 0.25 µg/mL; in [17], 1 µg/mL.

In the case of `CC[C@H]1OC(=O)[C@H](C)[C@@H](O[C@H]2C[C@@](C)(OC)[C@@H](O)[C@H](C)O2)[C@H](C)[C@@H](O[C@@H]2O[C@H](C)C[C@H](N(C)C)[C@H]2O)[C@](C)(O)C[C@@H](C)/C(=N\OCOCCOC)[C@H](C)[C@@H](O)[C@]1(C)O` [Roxithromycin], the MIC in [1] was 32 µg/mL (≈ 38.2 µM); in assay [11], 8 µg/mL (≈ 9.56 µM); in assay [12], 2 µg/mL (≈ 2.39 µM); in assay [13], under 2 µg/mL; in [14], 32 µg/mL (≈ 38.2 µM); in [15], 0.25 µg/mL (≈ 0.299 µM). Besides, the MIC in [7] is 1 µg/mL (≈ 1.19 µM); in assay [8], 0.25 µg/mL (≈ 0.299 µM); in assay [9], 0.25 µg/mL (≈ 0.299 µM); in assay [16] it was 0.25 µg/mL (≈ 0.299 µM); in [17], 1 µg/mL (≈ 1.19 µM).

Regarding `CC[C@H]1OC(=O)[C@H](C)[C@@H](O[C@H]2C[C@@](C)(OC)[C@@H](O)[C@H](C)O2)[C@H](C)[C@@H](O[C@@H]2O[C@H](C)C[C@H](N(C)C)[C@H]2O)[C@](C)(OC)C[C@@H](C)C(=O)[C@H](C)[C@@H](O)[C@]1(C)O` [Clarithromycin], the MIC is 32 µg/mL (≈ 42.8 µM) in assay [1], 4 µg/mL (≈ 5.35 µM) in assay [7], under 0.25 µg/mL in [8] and under 0.25 µg/mL in [9]. Also, in [2], the “Minimum Inhibitory Concentration Enterococcus faecalis” value is 2.7^(3) μg/mL. Also, in assay [3], the “Minimum Inhibitory Concentration Bacteroides fragilis” value is 16* μg/mL. For the same molecule, the “Minimum Inhibitory Concentration Streptococcus pyogenes” value in assay [4] was 0.06^(1) μg/mL. The “Minimum Inhibitory Concentration Streptococcus pneumonia” value in assay [5] is listed as 0.03^(1) μg/mL. In addition, in assay [6], the “Minimum Inhibitory Concentration Pasteurella multocida” value is listed as 2* μg/mL. Besides, the “Minimum Inhibitory Concentration Clostridium perfringens” value in assay [10] is 4* μg/mL.
